Five compounds from patent publication EP0933350A1, “Tricyclic retinoids, methods for their production and use” (LIGAND PHARMACEUTICALS INCORPORATED, priority 1994, dated 1996) can be followed below.

The target in experiment [1] is T1, RARα (Homo sapiens, UniProt P10276).
T1 sequence (P10276 1-462): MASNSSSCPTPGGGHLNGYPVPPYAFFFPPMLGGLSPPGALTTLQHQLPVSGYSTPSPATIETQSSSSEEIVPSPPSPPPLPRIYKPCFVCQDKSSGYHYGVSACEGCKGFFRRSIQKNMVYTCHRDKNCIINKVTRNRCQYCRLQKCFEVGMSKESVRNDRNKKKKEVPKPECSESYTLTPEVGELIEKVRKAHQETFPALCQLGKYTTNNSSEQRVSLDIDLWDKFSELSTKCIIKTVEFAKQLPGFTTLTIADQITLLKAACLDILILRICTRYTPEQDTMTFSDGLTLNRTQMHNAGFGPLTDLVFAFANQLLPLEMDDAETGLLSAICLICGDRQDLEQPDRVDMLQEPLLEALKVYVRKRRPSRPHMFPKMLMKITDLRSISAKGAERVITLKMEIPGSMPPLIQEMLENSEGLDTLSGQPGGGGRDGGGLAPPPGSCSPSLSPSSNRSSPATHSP
Kind of experiment: co-transfection assay (RAR/RXR agonist activity, luciferase reporter in CV-1 cells). The experiment is classed as cell-based. Particulars: read-out: RARα Pot. In general terms: Reporter assays use an easily measured gene product as a stand-in for the process of interest.

In the next experiment the target is T2, RARγ (Homo sapiens, UniProt P13631).
T2 sequence (P13631 1-454): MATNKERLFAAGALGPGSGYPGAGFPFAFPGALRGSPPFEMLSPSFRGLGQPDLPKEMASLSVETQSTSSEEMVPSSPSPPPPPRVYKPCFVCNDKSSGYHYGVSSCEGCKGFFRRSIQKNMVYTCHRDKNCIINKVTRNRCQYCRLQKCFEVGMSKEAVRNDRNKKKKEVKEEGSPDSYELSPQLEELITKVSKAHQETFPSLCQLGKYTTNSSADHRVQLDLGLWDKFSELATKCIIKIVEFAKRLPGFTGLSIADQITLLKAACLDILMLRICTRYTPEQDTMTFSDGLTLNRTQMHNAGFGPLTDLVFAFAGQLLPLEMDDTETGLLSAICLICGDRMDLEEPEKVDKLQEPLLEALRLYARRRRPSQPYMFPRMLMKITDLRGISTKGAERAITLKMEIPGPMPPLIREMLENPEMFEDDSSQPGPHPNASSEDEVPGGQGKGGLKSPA
The experiment is described as above. The class given is cell-based. Particulars: potency = EC50, agonist, 40 hours, read-out: RARγ Pot.

In experiment [2] the target is T3, RXRβ (Mus musculus, UniProt P28704).
T3 sequence (P28704 1-520): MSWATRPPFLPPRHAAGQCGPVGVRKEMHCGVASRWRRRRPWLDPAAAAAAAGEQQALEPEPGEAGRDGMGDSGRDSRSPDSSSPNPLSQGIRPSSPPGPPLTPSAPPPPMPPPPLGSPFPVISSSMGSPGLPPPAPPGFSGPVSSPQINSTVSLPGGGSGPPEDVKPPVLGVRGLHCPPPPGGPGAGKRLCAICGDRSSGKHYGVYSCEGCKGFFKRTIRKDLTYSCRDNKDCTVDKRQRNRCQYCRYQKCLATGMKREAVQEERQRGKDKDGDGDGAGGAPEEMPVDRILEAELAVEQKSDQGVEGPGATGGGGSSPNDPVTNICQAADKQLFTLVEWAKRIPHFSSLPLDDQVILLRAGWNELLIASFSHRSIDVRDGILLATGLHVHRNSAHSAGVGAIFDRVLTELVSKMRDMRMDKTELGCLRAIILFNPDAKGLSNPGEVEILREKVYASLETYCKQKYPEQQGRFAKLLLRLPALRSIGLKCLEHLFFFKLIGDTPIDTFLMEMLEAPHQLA
Described as above. The class given is cell-based. Particulars: read-out: RXRβ Pot.

For the next experiment, the target named is T4, RXRγ (Mus musculus, UniProt P28705).
T4 sequence (P28705 1-463): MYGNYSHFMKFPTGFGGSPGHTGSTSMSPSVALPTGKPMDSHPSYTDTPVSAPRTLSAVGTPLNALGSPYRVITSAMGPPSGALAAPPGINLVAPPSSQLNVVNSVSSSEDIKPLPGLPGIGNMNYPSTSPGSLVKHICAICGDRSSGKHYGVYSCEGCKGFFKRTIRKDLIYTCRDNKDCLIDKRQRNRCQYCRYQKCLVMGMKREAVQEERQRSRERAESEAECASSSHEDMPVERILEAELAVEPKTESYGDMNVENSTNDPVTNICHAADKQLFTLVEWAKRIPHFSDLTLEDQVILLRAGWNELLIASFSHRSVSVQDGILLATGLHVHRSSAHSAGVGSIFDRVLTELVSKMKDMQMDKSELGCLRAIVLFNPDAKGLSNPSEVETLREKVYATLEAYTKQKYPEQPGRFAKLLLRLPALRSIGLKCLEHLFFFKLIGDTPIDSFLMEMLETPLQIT
The experiment is described as above. The class given is cell-based. Particulars: read-out: RXRγ Pot.

In experiment [3] the target is T1, RARα. Kind of experiment: competitive binding of tritiated retinoids to retinoid receptors. Particulars: competition with tritiated retinoid, Cheng-Prussof equation.
Another experiment concerns the target T5, RARβ (Homo sapiens, UniProt P10826).
T5 sequence (P10826 1-455): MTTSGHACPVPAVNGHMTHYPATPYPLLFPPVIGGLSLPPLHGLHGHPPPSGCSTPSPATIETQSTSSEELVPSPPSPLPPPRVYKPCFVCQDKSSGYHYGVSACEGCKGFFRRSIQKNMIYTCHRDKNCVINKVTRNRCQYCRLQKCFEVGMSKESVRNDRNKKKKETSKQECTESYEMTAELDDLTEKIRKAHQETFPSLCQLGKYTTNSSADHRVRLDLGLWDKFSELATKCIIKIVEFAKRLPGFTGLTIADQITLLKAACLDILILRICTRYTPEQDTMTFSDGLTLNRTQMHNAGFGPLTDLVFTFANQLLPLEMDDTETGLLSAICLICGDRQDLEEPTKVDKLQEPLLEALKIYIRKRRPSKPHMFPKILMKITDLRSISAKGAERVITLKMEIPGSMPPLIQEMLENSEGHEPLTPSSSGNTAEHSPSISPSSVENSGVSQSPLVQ
The description is as above. Particulars: competition with tritiated retinoid, Cheng-Prussof equation.

Experiment [4] has as its target T3, RXRβ. The experiment is described as above. Particulars: competition with tritiated retinoid, Cheng-Prussof equation.

The structures appear in SMILES notation. Where only a bound is given, the exact number is not on record here.

With `CC(/C=C/C=C1/CCCc2cc3c(cc21)C(C)(C)CCC3(C)C)=C\C(=O)O` [Compound 101b, (2E,4E)-3-Methyl-6-[(Z)-3,4,5,6,7,8-hexahydro-5,5,8,8-tetramethyl-2H-anthracen-1-ylidene]hexa-2,4-dienoic acid], the EC50 on RARα [1] was 32 nM; on RARγ, 7 nM; on RXRβ [2], 55 nM; at RXRγ, 41 nM. For the same compound, the dissociation constant Kd – broadly, the constant that tells how readily two partners part at equilibrium – at RARα [3] is 225 nM; on RARβ it was 299 nM; on RXRβ [4] it was 30 nM.
As for `CC(/C=C/C=C1\CCCc2cc3c(cc21)C(C)(C)CCC3(C)C)=C\C(=O)O` [Compound 109b, (2E,4E)-3-Methyl-6-[(E)-3,4,5,6,7,8-hexahydro-5,5,8,8-tetramethyl-2H-anthracen-1-ylidene]hexa-2,4-dienoic acid], the EC50 on RARα [1] was found to be 28 nM; on RARγ it was 1 nM; at RXRβ [2], 64 nM; on RXRγ, 2270 nM. Also, the dissociation constant (Kd) on RARα [3] was determined as 33 nM; on RARβ, 68 nM; at RXRβ [4], 332 nM.
With `CC(/C=C/C=C1\CCOc2cc3c(cc21)C(C)(C)CCC3(C)C)=C\C(=O)O` [Compound 119b, (2E,4E)-3-Methyl-6-[(E)-2,3,6,7,8,9-hexahydro-6,6,9,9-tetramethylbenzo[g]chromen-4-ylidene]hexa-2,4-dienoic acid], the EC50 was 20 nM on RARα [1], 1 nM on RARγ, 1140 nM at RXRβ [2] and 742 nM on RXRγ. The Kd at RARα [3] worked out at 24 nM; at RARβ, 50 nM; on RXRβ [4] it was 372 nM.
On to `CC(/C=C/CN1CCCCc2cc3c(cc21)C(C)(C)CCC3(C)C)=C\C(=O)O` [Compound 138b, (2E,4E)-3-Methyl-6-[7,7,10,10-tetramethyl-2,3,4,5,7,8,9,10-octahydronaphtho[2,3-6]azepinyl)hexa-2,4-dienoic acid], for which the EC50 was more than 10000 nM on RARα [1], more than 10000 nM on RARγ, 204 nM on RXRβ [2] and 301 nM at RXRγ. Moreover, the values for the dissociation constant Kd on RARα [3], on RARβ and on RXRβ [4] were more than 1000 nM, more than 1000 nM and 276 nM, respectively.
With `CC(/C=C/C=C1/CCOc2cc3c(cc21)C(C)(C)CCC3(C)C)=C\C(=O)O` [Compound 144b], the EC50 at RARα [1] came to 14 nM; at RARγ, 2 nM; on RXRβ [2], 45 nM; at RXRγ, 40 nM. The Kd on RARα [3] worked out at 145 nM; at RARβ, 313 nM; at RXRβ [4] it was 146 nM.
